Test results from ChEMBL document CHEMBL1132850, “Design, synthesis and structure-activity relationship of a series of arginine aldehyde factor Xa inhibitors. Part 1: structures based on the (D)-Arg-Gly-Arg tripeptide sequence” (Bioorg Med Chem Lett, 2000).
Square brackets hold non-standard residues; d marks the D form. Peptide text beside a SMILES is read from it. * marks the point of attachment. ξ: configuration not given here. 1Nal = N[C@@H](Cc1cccc2ccccc12)C(=O)O; ξR = N=C(N)NCCCC(N)C(=O)O; Boc = CC(C)(C)OC(=O)*; ξP = O=C(O)C1CCCN1

How the values were obtained:
[1] = molecular target: Coagulation factor X (Homo sapiens, UniProt P00742); experiment: Inhibitory activity against coagulation factor X.
Sequence of Coagulation factor X (Homo sapiens, UniProt P00742) (P00742 41-179 limits assumed): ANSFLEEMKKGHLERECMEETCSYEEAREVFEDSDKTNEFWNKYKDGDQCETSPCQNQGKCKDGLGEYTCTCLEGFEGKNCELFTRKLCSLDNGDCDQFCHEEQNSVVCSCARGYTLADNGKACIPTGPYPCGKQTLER
Sequence of Coagulation factor X (Homo sapiens, UniProt P00742) (P00742 235-488 limits assumed): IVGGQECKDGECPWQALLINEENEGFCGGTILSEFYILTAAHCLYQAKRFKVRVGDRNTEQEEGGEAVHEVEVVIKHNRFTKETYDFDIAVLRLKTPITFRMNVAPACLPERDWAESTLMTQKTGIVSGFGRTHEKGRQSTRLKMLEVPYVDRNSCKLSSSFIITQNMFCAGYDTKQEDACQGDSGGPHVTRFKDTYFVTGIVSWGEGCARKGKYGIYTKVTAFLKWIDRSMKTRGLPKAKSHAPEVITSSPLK

[2] = molecular target: Prothrombin (Homo sapiens, UniProt P00734); experiment: Inhibitory activity against coagulation factor II (thrombin).
[3] = Inhibitory activity against prothrombinase complex (IIase).
[4] = molecular target: Thrombin and coagulation factor X (Homo sapiens) (UniProt P00734+P00742); experiment: Ratio of factor Xa inhibitory activity to that of factor IIa inhibitory activity; format: protein assay
Sequence of Thrombin and coagulation factor X (Homo sapiens) (P00742 whole entry, looked up, other chains not shown): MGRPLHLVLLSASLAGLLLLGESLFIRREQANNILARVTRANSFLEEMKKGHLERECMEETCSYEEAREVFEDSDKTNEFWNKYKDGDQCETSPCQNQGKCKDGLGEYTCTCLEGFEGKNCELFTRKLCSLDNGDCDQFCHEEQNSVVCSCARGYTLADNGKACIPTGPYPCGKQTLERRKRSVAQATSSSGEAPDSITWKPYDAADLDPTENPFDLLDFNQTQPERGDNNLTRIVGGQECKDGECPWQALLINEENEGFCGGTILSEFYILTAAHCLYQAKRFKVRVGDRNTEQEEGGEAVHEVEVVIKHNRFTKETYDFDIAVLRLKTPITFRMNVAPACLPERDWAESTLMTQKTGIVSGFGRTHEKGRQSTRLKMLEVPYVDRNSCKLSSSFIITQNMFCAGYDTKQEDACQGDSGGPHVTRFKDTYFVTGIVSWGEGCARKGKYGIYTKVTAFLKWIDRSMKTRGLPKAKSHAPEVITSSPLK

[5] = molecular target: Coagulation factor X (Bos taurus, UniProt P00743); experiment: Second-order rate of substrate hydrolysis (kcat/Km) by bovine coagulation factor X
Sequence of Coagulation factor X (Bos taurus, UniProt P00743) (P00743 41-180 limits assumed): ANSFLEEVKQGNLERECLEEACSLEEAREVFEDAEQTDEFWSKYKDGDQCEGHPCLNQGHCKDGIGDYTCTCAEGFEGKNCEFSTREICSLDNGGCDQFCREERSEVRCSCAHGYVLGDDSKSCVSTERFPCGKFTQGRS
Sequence of Coagulation factor X (Bos taurus, UniProt P00743) (P00743 234-492 limits assumed): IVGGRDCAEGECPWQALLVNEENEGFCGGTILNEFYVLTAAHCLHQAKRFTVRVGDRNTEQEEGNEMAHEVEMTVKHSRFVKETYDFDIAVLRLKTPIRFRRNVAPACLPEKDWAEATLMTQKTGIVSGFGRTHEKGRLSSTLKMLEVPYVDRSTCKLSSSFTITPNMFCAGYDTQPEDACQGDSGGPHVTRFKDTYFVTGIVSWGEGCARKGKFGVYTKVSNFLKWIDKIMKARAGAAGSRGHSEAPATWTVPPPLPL

Row | IC50 [1] | IC50 [2] | IC50 [3] | Ratio [4] | Compound | kcat/Km [5]
1 | 27 nM | 39000 nM | 20 nM | 1500 | N=C(N)NCCCC(C=O)NC(=O)CNC(=O)[C@H](CCCNC(=N)N)NS(=O)(=O)CCc1cccc2ccccc12 (some centres undefined) | 
2 |  | > 100000 nM |  |  | CC(C)(C)OC(=O)NC(CCCCN)C(=O)NCC(=O)N[C@H](C=O)CCCN=C(N)N (single isomer, unassigned) | 
3 | 3000 nM | > 100000 nM |  |  | C/N=C(\N(C)C)N(C)CCCC[C@H](NC(=O)OC(C)(C)C)C(=O)NCC(=O)NC(C=O)CCCNC(=N)N (some centres undefined) | 
4 | 28 nM | 64000 nM |  |  | N=C(N)NCCCC(C=O)NC(=O)CNC(=O)[C@H](CCCNC(=N)N)NS(=O)(=O)CCc1ccccc1 (some centres undefined) | 
5 |  | 400000 nM | 170 nM | 4000 | CC(C)(C)OC(=O)NC(CCCCN=C(N)N)C(=O)NCC(=O)N[C@H](C=O)CCCN=C(N)N (single isomer, unassigned) | 
6 | 140 nM | 42000 nM |  |  | CC(C)(C)OC(=O)N[C@@H](CCCNC(=N)N)C(=O)N[C@@H](Cc1cccc2ccccc12)C(=O)NC(C=O)CCCNC(=N)N (stereo partly drawn) (Boc-Arg-[1Nal]-[ξR]-aldehyde) | 
7 |  | > 500000 nM |  |  | CC(C)(C)OC(=O)NC(CCCN=C(N)N)C(=O)NC(C)(C)C(=O)N[C@H](C=O)CCCN=C(N)N (single isomer, unassigned) | 
8 |  | > 100000 nM |  |  | N=C(N)NCCCC(NC(=O)CCC(=O)O)C(=O)NCC(=O)N[C@H](C=O)CCCNC(=N)N (single isomer, unassigned) | 
9 |  |  | 340 nM | 300 | CC(C)(C)OC(=O)N[C@@H](CCCN=C(N)N)C(=O)N[C@@H](Cc1cccc2ccccc12)C(=O)NC(C=O)CCCN=C(N)N (stereo partly drawn) (Boc-Arg-[1Nal]-[ξR]-aldehyde) | 
10 | 20 nM | 2000 nM |  |  | CN(CC(=O)NC(C=O)CCCNC(=N)N)C(=O)[C@H](CCCNC(=N)N)NS(=O)(=O)Cc1ccccc1 (some centres undefined) | 
11 |  | > 100000 nM |  |  | CC(C)(C)OC(=O)NC(CCCNC(N)=O)C(=O)NCC(=O)N[C@H](C=O)CCCN=C(N)N (single isomer, unassigned) | 
12 |  | > 100000 nM |  |  | N=C(N)NCCCC(C=O)NC(=O)CNC(=O)[C@H](CCCNC(=N)N)NC(=O)COc1ccc2ccccc2c1 (some centres undefined) | 
13 |  | 50000 nM |  |  | N=C(N)NCCCC(C=O)NC(=O)CNC(=O)[C@H](CCCNC(=N)N)NS(=O)(=O)Cc1ccccc1 (some centres undefined) | 
14 |  |  |  |  | CC[C@H](C)[C@H](NC(=O)c1ccccc1)C(=O)N[C@@H](CCC(=O)O)C(=O)NCC(=O)N[C@@H](CCCN=C(N)N)C(=O)Nc1ccc([N+](=O)[O-])cc1 (HELM PEPTIDE1{[O=C(c1ccccc1)[*:2]].I.E.G.R.[O=[N+]([O-])c1ccc(N[*:1])cc1]}$$$$V2.0) | 350000 M⁻¹ s⁻¹
15 | 220 nM | 170000 nM | 180 nM | 770 | N=C(N)NCCC[C@@H](C=O)NC(=O)CNC(=O)C(CCCN=C(N)N)NC(=O)NCc1ccccc1 (single isomer, unassigned) | 
16 | 30 nM | > 100000 nM |  |  | CCOC(=O)NC(CCCN=C(N)N)C(=O)NCC(=O)N[C@H](C=O)CCCN=C(N)N (single isomer, unassigned) | 
17 |  |  | 58 nM | 100 | CN(CC(=O)NC(C=O)CCCN=C(N)N)C(=O)[C@H](CCCN=C(N)N)NS(=O)(=O)Cc1ccccc1 (some centres undefined) | 
18 | 100 nM | > 100000 nM |  |  | N=C(N)NCCCC(NC(=O)CC(=O)O)C(=O)NCC(=O)N[C@H](C=O)CCCNC(=N)N (single isomer, unassigned) | 
19 |  |  | 630 nM |  | N=C(N)NCCCC(NC(=O)C(=O)O)C(=O)NCC(=O)N[C@H](C=O)CCCNC(=N)N (single isomer, unassigned) | 
20 |  | > 500000 nM |  |  | CC(C)(C)OC(=O)N[C@@H](CCCNC(=N)N)C(=O)NCCC(=O)NC(C=O)CCCNC(=N)N (some centres undefined) | 
21 |  |  | 12000 nM | 30 | C/N=C(\N(C)C)N(C)CCCC[C@H](NC(=O)OC(C)(C)C)C(=O)NCC(=O)NC(C=O)CCCN=C(N)N (some centres undefined) | 
22 | 190 nM | 55000 nM | 828 nM | 290 | NC(N)=NCCCC(N)C(=O)NCC(=O)N[C@H](C=O)CCCN=C(N)N (single isomer, unassigned) | 
23 | 60000 nM | > 500000 nM | 440000 nM | 8 | CC(C)(C)OC(=O)N[C@@H](CCCN=C(N)N)C(=O)N1CCC[C@H]1C(=O)NC(C=O)CCCN=C(N)N (stereo partly drawn) (Boc-Arg-Pro-[ξR]-aldehyde) | 
24 |  |  | 21 nM | 4 | CC(C)(C)OC(=O)N[C@@H](CCCN=C(N)N)C(=O)N1CCCC1C(=O)NC(C=O)CCCN=C(N)N (stereo partly drawn) (Boc-Arg-[ξP]-[ξR]-aldehyde) | 
25 |  |  | 38 nM | 2300 | N=C(N)NCCCC(C=O)NC(=O)CNC(=O)[C@H](CCCN=C(N)N)NS(=O)(=O)CCc1ccccc1 (some centres undefined) | 
26 |  |  |  |  | N=C(N)NCCC[C@H](NC(=O)CNC(=O)[C@@H](CCCNC(=N)N)NC(=O)OCc1ccccc1)C(=O)Nc1ccc([N+](=O)[O-])cc1 (HELM PEPTIDE1{[O=C(OCc1ccccc1)[*:2]].[dR].G.R.[O=[N+]([O-])c1ccc(N[*:1])cc1]}$$$$V2.0) | 2.27e+06 M⁻¹ s⁻¹
27 | 12000 nM | > 500000 nM | 65000 nM | 42 | CC(C)(C)OC(=O)NC(CCCN)C(=O)NCC(=O)N[C@H](C=O)CCCN=C(N)N (single isomer, unassigned) | 
28 | 1000 nM | 88000 nM | 10000 nM | 88 | CC(=N)NCCCC(NC(=O)OC(C)(C)C)C(=O)NCC(=O)N[C@H](C=O)CCCN=C(N)N (single isomer, unassigned) | 
29 | 46 nM | 200 nM |  |  | CC(C)(C)OC(=O)N[C@@H](CCCNC(=N)N)C(=O)N1CCCC1C(=O)NC(C=O)CCCNC(=N)N (stereo partly drawn) (Boc-Arg-[ξP]-[ξR]-aldehyde) | 
30 |  |  | 2000 nM | 375 | N=C(N)NCCCC(NC(=O)CCc1ccccc1)C(=O)NCC(=O)N[C@H](C=O)CCCNC(=N)N (single isomer, unassigned) | 

Row | Compound | IC50 [1] | IC50 [2] | IC50 [3] | Ratio [4] | kcat/Km [5]
31 | CC(C)(C)OC(=O)NC(CCCN=C(N)N)C(=O)NCC(=O)N[C@H](C=O)CCCN=C(N)N (single isomer, unassigned; 4) | 2000 nM |  |  |  | 
